Laboratory results reported in PubChem BioAssay AID812 (SRMLSC, 2007).
Calls of active or inactive are those of the source. How the calls were made is not given here.

system: Saccharomyces cerevisiae lifespan extension, no nicotinamide; experiment: yeast lifespan extension without nicotinamide, confirmation, yeast lifespan extension project, S. cerevisiae (AID 812);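 further: growth read as optical density after 42 hours of incubation at 30C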

| SMILES | EC50 |
| --- | --- |
| O=C1/C(=N/n2cnnc2)c2ccccc2N1Cc1ccccc1 | > 40 µM (inactive) |
| CCOC(=O)C1=C(N)OC2=C(C(=O)CCC2)C1c1sccc1C (stereo not given) | > 40 µM (inactive) |
| CC(C)c1ccc(C2=C(O)c3ccccc3C(=O)C2=O)cc1 | > 40 µM (inactive) |
| COc1ccc(NC(=S)N2CCN(CCN=CC3=C(O)CC(c4ccccc4)CC3=O)CC2)cc1 (stereo not given) | > 40 µM (inactive) |
| COc1ccc(/C(O)=C/C(=O)C(=O)Nc2c(C)n(C)n(-c3ccccc3)c2=O)cc1 | > 40 µM (inactive) |
| O=C(c1ccccc1)C(CN1CCCC1)c1ccccc1 (stereo not given) | > 40 µM (inactive) |
| Cc1cc(C)nc(SCc2cc(=O)c(OC(=O)c3ccco3)co2)n1 | > 40 µM (inactive) |
| Cc1nn(-c2c(Cl)cc(Cl)cc2Cl)c(=O)c2ccccc12 | > 40 µM (inactive) |
| Cc1ccc(S(=O)(=O)N[C@@H](Cc2ccccc2)C(=O)CCl)cc1 | > 40 µM (inactive) |
| O=C1c2ccccc2NC(c2ccc(Cl)cc2Cl)N1O (stereo not given) | > 40 µM (inactive) |
| CCCCOC(=O)CSc1nc2c(c(=O)[nH]c(=O)n2C)n1C/C=C(\C)Cl | > 40 µM (inactive) |
| O=C1c2ccccc2C(=O)N1OCc1ccccc1 | > 40 µM (inactive) |
| CC(=O)c1c(O)cc2n(c1=O)-c1ccc(Cl)cc1C2(C)C | > 40 µM (inactive) |
| CC(C)C(C(=O)O)N1C(=O)/C(=C/c2cccn2C)SC1=S (stereo not given) | > 40 µM (inactive) |
| O=C1c2ccccc2C(=O)N1c1ncc(Cc2ccc(Cl)cc2)s1 | > 40 µM (inactive) |
| Cc1ccc(NC(=O)CN2CCN(CCN=CC3=C(O)CC(c4ccccc4)CC3=O)CC2)cc1 (stereo not given) | > 40 µM (inactive) |
| COc1c(Br)cc(Br)cc1/C=N/n1c(C)nnc1C | > 40 µM (inactive) |
| O=C(c1cnn2c(C(F)F)cc(C3CC3)nc12)N1CCCC1 | > 40 µM (inactive) |
| O=S(=O)(Nc1cccc2c1CCCC2)c1ccc(Cl)cc1 | > 40 µM (inactive) |
| C/C=C/Cn1c(N2CCCCCC2)nc2c1c(=O)[nH]c(=O)n2C | > 40 µM (inactive) |
| CCOC(=O)Cc1csc(NC(=O)c2c(O)c3ccccc3n(CC(C)C)c2=O)n1 | > 40 µM (inactive) |
| Cc1ccccc1OC(=O)n1c(=S)oc2cc(Cl)ccc21 | > 40 µM (inactive) |
| Cc1ccc(NC(=O)Nc2nc(-c3ccc(C)s3)cs2)cc1 | > 40 µM (inactive) |
| CCOC(=O)c1ccccc1N1C(=O)CSC1=S | > 40 µM (inactive) |
| CCN(CC)Cc1c(O)c(Cl)cc2c(C)c(C)c(=O)oc12 | > 40 µM (inactive) |

| SMILES | EC50 |
| --- | --- |
| O=C1CC(c2ccccc2)CC(O)=C1C=NCCN1CCN(C(=O)Nc2ccccc2)CC1 (stereo not given) | > 40 µM (inactive) |
| CC(=O)[C@H]1[C@H](c2cccc(Cl)c2)C(C#N)(C#N)[C@@H]2c3ccccc3C=CN21 | > 40 µM (inactive) |
| CC(=O)Oc1ccc(N(C(C)=O)S(=O)(=O)c2ccc(C)c([N+](=O)[O-])c2)cc1 | > 40 µM (inactive) |
| CCCCCC1CC1C(=O)N/N=C/c1ccc(N(C)C)cc1 (stereo not given) | > 40 µM (inactive) |
| C=CCN(CC=C)c1nc2ccccc2nc1C(C#N)C(=O)OC(C)C (stereo not given) | > 40 µM (inactive) |
| CCOC(=O)c1c(C)oc2c1c(C(c1cccnc1)N1CCCCC1)c(O)c1ccccc12 (stereo not given) | > 40 µM (inactive) |
| CCCCC(=Nc1ccc(N)cc1)C1=C(O)C(C(=O)OC)C(C)(C)CC1=O (stereo not given) | > 40 µM (inactive) |
| O=C(O)c1c[nH]c(=S)n1-c1ccc(F)cc1 | > 40 µM (inactive) |
| CCOC(=O)CN1C(=O)N[C@H](c2ccc(Br)cc2)C(C(C)=O)=C1C | > 40 µM (inactive) |
| CCc1cc2c(=O)c(Oc3ccccc3)c(C)oc2cc1O | > 40 µM (inactive) |
| O=C(Nc1nc2ccccc2n1CCN1CCOCC1)c1cn(-c2ccccc2)nc1-c1ccccc1 | > 40 µM (inactive) |
| C/C(=N\NC(=O)c1ccccc1O)c1c(O)cc(C)oc1=O | > 40 µM (inactive) |
| CCn1cc(C(=O)O)c(=O)c2ccc(C)nc21 | > 40 µM (inactive) |
| COc1ccc(-c2cc(N)n(S(=O)(=O)c3c(F)c(F)c(F)c(F)c3F)n2)cc1OC | 26.2 µM |
| Cc1cc(C(=O)CN2C(=O)NC(C)(CC(C)C)C2=O)c(C)n1-c1ccc2c(c1)OCO2 (stereo not given) | > 40 µM (inactive) |
| COc1ccc(OC)c(C2C(C(C)=O)=C(O)C(=O)N2Cc2cccnc2)c1 (stereo not given) | > 40 µM (inactive) |
| CCOc1ccc(C(=O)C(CN2CCOCC2)c2ccccc2)cc1 (stereo not given) | > 40 µM (inactive) |
| Cc1cc(C)cc(CC2CC(=O)N(c3ccc(Cl)cn3)C2=O)c1 (stereo not given) | > 40 µM (inactive) |
| CCC1CCCCN1S(=O)(=O)c1ccc(S(=O)(=O)N(Cc2cccs2)C2CC2)cc1 (stereo not given) | > 40 µM (inactive) |
| CCn1c(=O)c2ccccc2n2c(SCC(=O)N3CCCc4ccccc43)nnc12 | > 40 µM (inactive) |
| COc1ccc(C(CNC(=O)c2cccc(Br)c2)N2CCCC2)cc1 (stereo not given) | > 40 µM (inactive) |
| COc1cccc(CSc2nc3ccccc3cc2C=O)c1 | > 40 µM (inactive) |
| CCCCSc1nc(O)c(C2OC(=O)c3c2ccc(OC)c3OC)c(=O)n1C (stereo not given) | > 40 µM (inactive) |
| O=C(c1ccccc1)c1nc2ccccc2[nH]c1=O | > 40 µM (inactive) |
| CCCn1[nH]cc(SC)c(=O)c1=O | > 40 µM (inactive) |

| SMILES | EC50 |
| --- | --- |
| C=C(CC)C(=O)c1ccc(OCC(=O)O)c(Cl)c1Cl | > 40 µM (inactive) |
| CCc1ccc(C(=O)CN2C(=O)NC(C)(CCc3ccccc3)C2=O)cc1 (stereo not given) | > 40 µM (inactive) |
| CCCCCCCC(=O)N/N=C(/C)c1c(O)cc(C)oc1=O | > 40 µM (inactive) |
| COc1cc(/C=c2\sc3nc(-c4ccncc4)nn3c2=O)ccc1OC(C)=O | > 40 µM (inactive) |
| C[C@]12CC[C@@H](O)C[C@@H]1CC[C@@H]1[C@@H]2CC[C@]2(C)[C@@H](O)CC[C@@H]12 | > 40 µM (inactive) |
| Cc1cc(C)n(-c2ccc(OCC(=O)O)nn2)n1 | > 40 µM (inactive) |
| CCCCCC(=O)N1CCN(CCN=CC2=C(O)CC(c3ccc(OC)c(OC)c3)CC2=O)CC1 (stereo not given) | > 40 µM (inactive) |
| Cc1ccc(N(C)C(=O)Oc2ccc(C(=O)c3ccc(Cl)cc3)cc2)cc1 | > 40 µM (inactive) |
| CC1(C)CC2c3cccc(C(=O)O)c3C(=O)N2c2c1ccc1ccccc21 (stereo not given) | > 40 µM (inactive) |
| CCSc1nnc(NC(=O)C2(C)Cc3ccccc3C(=O)O2)s1 (stereo not given) | > 40 µM (inactive) |
| COc1cnc(-c2ccccn2)nc1Sc1cccc(Cl)c1 | > 40 µM (inactive) |
| COC(=O)C1=C(N)OC2=C(C(=O)CC(C)(C)C2)C1c1cccs1 (stereo not given) | > 40 µM (inactive) |
| COc1ccc(N(C)C(=S)Nc2ccc3nc(C)c(C)nc3c2)cc1 | > 40 µM (inactive) |
| COCCCNc1c2c3c(cccc3[nH]c1=O)C(=O)c1ccccc1-2 | > 40 µM (inactive) |
| Cc1ccc(Oc2nc3ccccc3n3c(C)nnc23)c(C)c1 | > 40 µM (inactive) |
| CCCC(=Nc1ccc(N)cc1)C1=C(O)C(C(=O)OC)C(C)(C)CC1=O (stereo not given) | > 40 µM (inactive) |
| CC(C)n1c(=O)c2c(O)cc(=O)oc2c2ccccc21 | > 40 µM (inactive) |
| COc1ccc(CN2CCN(C(=O)COc3cccc(C)c3)CC2)c(OC)c1 | > 40 µM (inactive) |
| CN(c1ccccc1)c1nc2ccsc2c(=O)s1 | > 40 µM (inactive) |
| CC1(C)CC(=O)c2sc(NS(C)(=O)=O)nc2C1 | > 40 µM (inactive) |
| CCC(C)OC(=O)C1C(c2ccccc2)C(C(=O)O)C1c1ccccc1 (stereo not given) | > 40 µM (inactive) |
| COc1ccc(C(=O)Nc2ccc(OCc3ccccc3)cc2)cc1[N+](=O)[O-] | > 40 µM (inactive) |
| CCOC(=O)c1[nH]nc(C(=O)c2ccc(Br)cc2)c1O | > 40 µM (inactive) |
| O=C(COc1ccc2ccccc2c1)Nc1cccc(C(=O)Nc2ccccc2C(=O)O)c1 | > 40 µM (inactive) |
| CCCC(=Nc1ccccc1)C1=C(O)C(C(=O)OC)C(C)(C)CC1=O (stereo not given) | > 40 µM (inactive) |

| SMILES | EC50 |
| --- | --- |
| O=C(Nc1scc(-c2ccc(F)cc2)c1C(=O)O)c1ccco1 | > 40 µM (inactive) |
| CCn1c(/N=C/c2ccccc2NS(=O)(=O)c2ccc(C)cc2)nc2ccccc21 | > 40 µM (inactive) |
| CCOC(=O)c1ccc2c(c1)n(CCO)c(C)[n+]2CC | > 40 µM (inactive) |
| CN1C(=O)C(C(=O)Nc2ccccc2F)c2ccccc21 (stereo not given) | > 40 µM (inactive) |
| CCCCn1c(/N=C/c2ccccc2NS(=O)(=O)c2ccc(C)cc2)nc2ccccc21 | > 40 µM (inactive) |
| Cc1nc2c(=O)n(C)c(=O)n(C)c2nc1Cl | > 40 µM (inactive) |
| O=C1CC(c2ccc(F)cc2)CC(O)=C1C=NCCN1CCN(C(=O)Nc2ccccc2)CC1 (stereo not given) | > 40 µM (inactive) |
| CC1=CN2C(=N)/C(=C/c3ccc([N+](=O)[O-])o3)C(=O)N=C2S1 | > 40 µM (inactive) |
| CCC(=NCCc1c(C)[nH]c2ccc(C)cc12)C1=C(O)CC(c2ccccc2)CC1=O (stereo not given) | > 40 µM (inactive) |
| Cc1ccccc1NC(=O)c1ccccc1 | > 40 µM (inactive) |
| Oc1ccc(Br)cc1C=Nc1ccc2[nH]ncc2c1 | > 40 µM (inactive) |
| COC(=O)CC1=NN(c2ccccc2)C(=O)/C1=C\c1ccc(OC)cc1 | > 40 µM (inactive) |
| CN1C/C(=C/c2cccnc2)C(=O)/C(=C/c2cccnc2)C1 | > 40 µM (inactive) |
| CC1CCCCN1C(=S)Nc1ccc2nc3n(c(=O)c2c1)CCCCC3 (stereo not given) | > 40 µM (inactive) |
| CCCC[n+]1c(-c2ccc(Cl)cc2Cl)csc1Nc1ccccc1 | > 40 µM (inactive) |
| O=C(Nc1ccc(S(=O)(=O)N2CCc3ccccc3C2)cc1)c1ccccc1 | > 40 µM (inactive) |
| COC(=O)CSc1ncccc1-c1nc2ccccc2[nH]1 | > 40 µM (inactive) |
| COc1ccc(-c2cc(C(F)(F)F)nc(S(C)(=O)=O)n2)cc1 | > 40 µM (inactive) |
| O=c1c(Cl)c(NCCCO)cnn1-c1nc2ccccc2[nH]1 | > 40 µM (inactive) |
| Cc1ccnc(-n2c(C)cc(/C=C3\C(=O)NC(=S)N(C)C3=O)c2C)c1 | > 40 µM (inactive) |
| CN(Cc1c(O)ccc2c1oc(=O)c1ccccc12)C1CCCCC1 | > 40 µM (inactive) |
| O=C(CSc1nc2ccccc2o1)c1cc2ccccc2oc1=O | > 40 µM (inactive) |
| CC1=NN(c2ccc(C(F)(F)F)cn2)C(=O)C1 | > 40 µM (inactive) |
| CCCCNC(=O)/C(C#N)=C/c1cccnc1 | > 40 µM (inactive) |
| Cc1cc2c(c(=O)n1CCc1ccccc1)C(c1ccco1)C(C#N)=C(N)O2 (stereo not given) | > 40 µM (inactive) |
